In the NIST ThermoML archive (doi:10.1016/j.jct.2006.06.001):

Columns and labels:
[1] = 81.5 kPa, Liquid
[2] = xn = mol fraction of the nth substance listed; conditions: 81.5 kPa, Liquid

CCCO [propan-1-ol]
[1]
Conditions	mass density [kg/m3]
293.15 K	803.61
303.15 K	795.57
313.15 K	787.39
323.15 K	779.02
333.15 K	770.42
343.15 K	761.51

COCCO [2-methoxyethan-1-ol]
[1]
Conditions	mass density [kg/m3]
293.15 K	964.86
303.15 K	955.68
313.15 K	946.38
323.15 K	936.95
333.15 K	927.38
343.15 K	917.64

COCCO [2-methoxyethan-1-ol] + CC(O)CO
mass density [kg/m3], [2]
Conditions	293.15 K	303.15 K	313.15 K	323.15 K	333.15 K	343.15 K
x1 = 0.0745	1030.87	1023.34	1015.67	1007.87	999.89	991.75
x1 = 0.1669	1024.12	1016.42	1008.59	1000.6	992.48	984.19
x1 = 0.2365	1019.06	1011.22	1003.26	995.17	986.94	978.54
x1 = 0.3194	1013.05	1005.07	996.96	988.73	980.35	971.81
x1 = 0.3946	1007.6	999.48	991.25	982.88	974.38	965.73
x1 = 0.4791	1001.49	993.22	984.85	976.34	967.7	958.9
x1 = 0.5625	995.51	987.1	978.58	969.93	961.14	952.2
x1 = 0.6331	990.47	981.94	973.3	964.53	955.63	946.55
x1 = 0.7266	983.82	975.12	966.32	957.38	948.31	939.08
x1 = 0.8081	978.11	969.27	960.32	951.24	942.02	932.64
x1 = 0.8752	973.43	964.47	955.4	946.21	936.87	927.36
x1 = 0.9658	967.23	958.12	948.88	939.52	930.01	920.33

CC(O)CO (stereo not given) [1,2-propanediol]
[1]
Conditions	mass density [kg/m3]
293.15 K	1036.3
303.15 K	1028.89
313.15 K	1021.35
323.15 K	1013.68
333.15 K	1005.86
343.15 K	997.86

COCCO [2-methoxyethan-1-ol] + CCCO
mass density [kg/m3], [2]
Conditions	293.15 K	303.15 K	313.15 K	323.15 K	333.15 K	343.15 K
x1 = 0.0845	817.73	809.55	801.23	792.73	783.99	774.97
x1 = 0.1559	829.58	821.29	812.86	804.25	795.42	786.31
x1 = 0.2391	843.36	834.94	826.39	817.66	808.72	799.51
x1 = 0.3146	855.77	847.26	838.61	829.78	820.75	811.47
x1 = 0.4015	869.91	861.29	852.53	843.61	834.47	825.11
x1 = 0.479	882.45	873.74	864.89	855.88	846.68	837.25
x1 = 0.5597	895.42	886.62	877.69	868.6	859.32	849.83
x1 = 0.6365	907.69	898.82	889.81	880.65	871.31	861.76
x1 = 0.7183	920.73	911.78	902.7	893.47	884.08	874.48
x1 = 0.7939	932.73	923.71	914.56	905.28	895.83	886.17
x1 = 0.8775	945.88	936.8	927.59	918.24	908.74	899.05
x1 = 0.9553	957.99	948.84	939.57	930.18	920.63	910.9

CC(C)O [propan-2-ol]
[1]
Conditions	mass density [kg/m3]
293.15 K	785.1
303.15 K	776.63
313.15 K	767.85
323.15 K	758.68
333.15 K	749.06
343.15 K	738.91

COCCO [2-methoxyethan-1-ol] + CC(C)O
mass density [kg/m3], [2]
Conditions	293.15 K	303.15 K	313.15 K	323.15 K	333.15 K	343.15 K
x1 = 0.0823	800.06	791.49	782.64	773.45	763.86	753.79
x1 = 0.1565	813.56	804.91	796	786.79	777.21	767.2
x1 = 0.2367	828.13	819.4	810.43	801.18	791.6	781.64
x1 = 0.3166	842.63	833.83	824.81	815.54	805.96	796.02
x1 = 0.4015	858.01	849.14	840.08	830.78	821.21	811.31
x1 = 0.4766	871.62	862.69	853.59	844.26	834.69	824.82
x1 = 0.5605	886.76	877.79	868.64	859.3	849.72	839.87
x1 = 0.6403	901.1	892.08	882.9	873.54	863.96	854.14
x1 = 0.7179	914.98	905.92	896.72	887.34	877.76	867.96
x1 = 0.7925	928.26	919.16	909.94	900.55	890.96	881.18
x1 = 0.8593	940.12	931	921.74	912.34	902.77	892.99
x1 = 0.9585	957.65	948.49	939.2	929.78	920.21	910.45
